Measurements from US20230134859A1, “METHOD FOR SCREENING FOR, METHOD FOR PRODUCING, AND METHOD FOR DESIGNING DRUG ACTIVE INGREDIENTS” (SKY PHARMA CO., LTD., priority 2020, published 2023).

How the values were obtained:
Type in all cases: in vivo
pancreatic β cells = test: Test Example 9: pancreatic β cells and insulin in transgenic zebrafish embryos; conditions: vs control; for production amount of insulin by β cells (immunostaining with anti-insulin antibody, average fluorescence intensity): 100 nM or 5 nM, 20 h after injection, n=10; for production amount of insulin by β cells (in situ hybridization, ins probe): 100 nM, 14 h after injection, n=100
Procedure: Transgenic zebrafish expressing pancreatic β-cell GFP
Transgenic zebrafish embryos expressing pancreatic β-cell GFP at 10 hours after fertilization were held with the dorsal side of the head up on a coffin, and a glass capillary was inserted from the dorsal side into a gap just below the midline neural tube at about 2 times the distance between the rostral end and the ear vesicles to the caudal side (pancreatic primordium). A nitrogen gas pressure (15 picosiemens) was applied for 15 to 45 milliseconds, and the test compound was injected. The concentration of the test compound was 100 nM/E3, and 0.025% (final concentration) phenol red was mixed as a tracer of the infusion solution. The injection was performed in pulses with a foot pedal and continued until phenol red was distributed in an elliptical shape with a major axis of 200 μm from the insertion point.
The test compound (100 nM) was injected on a coffin in transgenic zebrafish embryos expressing pancreatic β-cell GFP at 10 hours after fertilization. After injection, embryos were cultured in E3 at 28.5° C. for 14 hours. After chorions were removed with tweezers, the embryos were fixed with 4% paraformaldehyde/PBS at room temperature for 1 hour, and in situ hybridization was performed overnight at 65° C. in the presence of a DIG probe of insulin (ins) according to a conventional method. After washing, β cells were stained by an alkali phosphatase color reaction using an anti-DIG antibody. After staining, the embryos were washed with PBS, embedded in 75% glycerin/PBS and localized, and then microscopically photographed with incident light. The number of test individuals was unified with n=100 for each test compound (FIG. 23).
Transgenic zebrafish embryos expressing pancreatic β-cell GFP at 10 hours after fertilization were injected with the test compound (100 nM or 5 nM) on the coffin. After injection, embryos were cultured in E3 at 28.5° C. for 20 hours in the presence of 0.2 mM phenylthiourea (PTU). After chorions were removed with tweezers, the embryos were fixed with 4% paraformaldehyde/PBS at normal temperature for 1 hour, immunohistochemically reacted with an anti-insulin antibody according to a conventional method, and then reacted with an Alexa fluor 488 anti-mouse IgG secondary antibody. The reacted embryos were washed with PBS, embedded in 75% glycerin/PBS and localized, and then microscopically photographed with 488 nm excitation light (FIG. 24). The number of tested individuals was unified with n=10 for each compound. The insulin amount was quantified by measuring the average fluorescence intensity in a circle with a radius of 100 μm centered on the fluorescence point (FIG. 25).

cardiomyocytes = test: Test Example 8: enhancement of myocardium in zebrafish embryo (nkx2.5 in situ hybridization, blood cells pumped per heartbeat); conditions: test compounds = Compounds 1 to 7; 100 μM injected at heart primordium 10 h after fertilization; vs control; n=80
Procedure: Zebrafish embryos at 10 hours after fertilization were held with the dorsal side of the head up on a coffin (plastic plate with V-shaped grooves for holding), and a glass capillary was inserted into a midline between head and ear vesicles (heart primordium). Nitrogen gas pressure (15 picosiemens) was applied for 15 to 45 milliseconds and injected into the gap just below the neural tube. The test compound concentration was 100 μM/E3, and 0.025% (final concentration) phenol red was mixed as a tracer of the injection solution. The injection was performed in pulses with a foot pedal and continued until phenol red was distributed in an elliptical shape with a major axis of 200 μm from the insertion point. After injection, embryos were cultured at 28.5° C. for 14 hours in E3. After chorions were removed with tweezers, the embryos were fixed with 4% paraformaldehyde/PBS at normal temperature for 1 hour, and in situ hybridization was performed overnight at 65° C. in the presence of a DIG probe of nk×2.5 as a cardiac muscle marker according to a conventional method. After washing, cardiomyocytes were stained by an alkali phosphatase color reaction using an anti-DIG antibody. The stained embryos were washed with PBS, embedded in 75% glycerin/PBS and localized, and then microscopically photographed with incident light. The number of tested individuals was unified with n=80 for each compound.
In addition, the zebrafish embryos injected with the test compound by the above-described method were cultured at 28.5° C. until 48 hours after fertilization, embedded in 3% methyl cellulose/E3, and a moving image was photographed. The number of blood cells pumped in one heartbeat in time-lapse was counted n=15 and compared to Ringer injected individuals.

Purkinje cells = test: Test Example 6: increase in Purkinje cells of adult mouse after injection into E11.5 fetal ventricle; conditions: test compounds = Compounds 1 to 7; 100 μM injected into E11.5 fetal ventricle, counted in adult mice; vs control; N=10
Procedure: A solution prepared by dissolving 100 μM of the test compound in physiological saline was injected into E11.5 mouse fetal ventricle. Brains of adult mouse individuals were fixed, and slice sections of cerebellar Purkinje cell layers were immunostained with an anti-d-Calbindin antibody, which is a marker of cell bodies and neurites of Purkinje cells. After staining, the number of Purkinje cells was counted, and the average value thereof was calculated.
As a control experiment (control), a similar experiment was performed using physiological saline containing no test compound.
The number of samples is 10 for each of Compounds 1 to 7 and control (N=10).

[1] = test system: sox1α, sox2, sox3, and her6; test: Test Example 1: quantitative PCR of neural stem cell markers in brains of treated zebrafish; conditions: brain of treated zebrafish individuals; ΔΔCt; vs control
Procedure: Moreover, the brains of the treated zebrafish individuals were dissected and washed with sterile distilled water, and then crushed by pipetting or 1 ml syringe suction discharge with 18 G to 24 G needles in 500 μl of Sepasol-RNA I Super G (Nacalai Tesque). A deproteinization operation was conducted once by equivalent phenol/chloroform treatment and once by chloroform treatment, and the supernatant was subjected to RNA purification using an RNA purification column (RNeasy Plus Mini Kit, Qiagen). The elute was reverse-transcribed using a mixed primer of random hexamer and oligo-dT (ReverTra Ace qPCR Kit, TOYOBO) at 37° C. for 15 minutes and 98° C. for 5 minutes, and quantitative PCR of expression levels of sox1α, sox2, sox3, and her6, which are markers of neural stem cells, was performed. Quantitative PCR was performed with SYBER Green Realtime PCR Master Mix (TOYOBO). For the PCR reaction, ABI PRISM 7700 or LightCycler from Roche Diagnostics K.K. was used. Quantification was performed in 3 wells per identical sample (n=3). The obtained data was comparatively quantified by a ΔΔCt method using a normalizer (β-actin, GAPDH, 18S, or the like). In order to confirm that the quantitative reaction was reliable, it was confirmed that the amplification product was in a band by agarose electrophoresis.

[2] = test system: mesencephalic neural stem cells; test: Test Example 7: increase in neural stem cells of adult zebrafish by intracerebroventricular administration; conditions: test compounds = Compounds 1 to 7; 100 μM into ventricle of one-month-old fish, 1 week; E3 Ringer or lipofection; vs control
Procedure: Reporter gene transgenic line of zebrafish specifically expressing green fluorescent protein in mesencephalic neural stem cells
A solution (0.1% DMSO) in which the test compound (100 μM) was dissolved in E3 Ringer (zebrafish physiological saline) was prepared. Mesencephalic neural stem cells were microscopically injected into the ventricles of one-month-old adult fish individuals labeled with green fluorescent protein, and cultured at 28.5° C. for 1 week.
As a control experiment (control), only E3 Ringer (0.1% DMSO plus 0.025% phenol red) was administered into the ventricle in the same volume. […]
Specifically, the solid cultured for 7 days after injection was held in a 3% methylcellulose/E3 Ringer/0.02% tricaine solution on a slide glass, and then GFP was emitted with 488 nm excitation light and imaged by a CCD camera. In addition, the average fluorescence brightness of the green fluorescent protein in a rectangle with a width of 100 μm and a height of 50 μm with the rostral end up around the fluorescence expression part was measured with a brightness analysis software. […]
In order to inhibit synthesis of melanin pigment that interferes with observation with a fluorescence microscope, 0.2 mM phenylthiourea (PTU) had been added to the culture solution.

SMILES | production amount of insulin by β cells (immunostaining with anti-insulin antibody, average fluorescence intensity) (pancreatic β cells) | production amount of insulin by β cells (in situ hybridization, ins probe) (pancreatic β cells) | amount of cardiomyocytes (in situ hybridization, nkx2.5) (cardiomyocytes) | number of Purkinje cells in the cerebellar Purkinje cell layers (Purkinje cells) | expression levels of sox1α, sox2, sox3, and her6 (quantitative PCR) [1] | fluorescence indicating the presence of mesencephalic neural stem cells in the brain of adult zebrafish [2]
Cc1cccc(-c2n[nH]cc2-c2ccnc3ccccc23)n1 [Compound 2, 4-[3-(6-Methylpyridin-2-yl)-1H-pyrazol-4-yl]quinoline] | significantly increased as compared with the control individual | significantly increased as compared with the control individual | increase in the amount of cardiomyocytes was observed | significantly higher than that of the control | significant increase in expression levels | –
O=C(O)CCC(=O)Nc1ccc(Br)cn1 [Compound 5, 4-[(5-Bromopyridin-2-yl)amino]-4-oxobutyric acid] | – | significantly increased as compared with the control individual | increase in the amount of cardiomyocytes was observed | significantly higher than that of the control | – | strongly detected as compared with the control
COc1cc(N2CCC(N(C)C)CC2)ccc1Nc1ncc(Cl)c(Nc2ccccc2P(C)(C)=O)n1 [Compound 6, 5-Chloro-2-N-{4-[4-(dimethylamino)piperidin-1-yl]-2-methoxyphenyl}-4-N-[2-(dimethylphosphoryl)phenyl]pyrimidine-2,4-diamine] | significantly increased as compared with the control individual | significantly increased as compared with the control individual | – | – | – | –
